# Measured values taken from ChEMBL document CHEMBL5528063, “Antitrypanosomal Chloronitrobenzamides” (J Med Chem, 2024).
# The source made the active and inactive calls. The calls are words filed in the database; no cut-off is given here.
# Key:
# [1] = tested on: Trypanosoma brucei brucei; experiment: Antitrypanosomal activity against Trypanosoma brucei brucei 427 assessed as inhibition of parasite proliferation incubated for 48 hrs by CellTiter-Glo luminescent assay; format: functional, organism-based; conditions: Trypanosoma brucei, 427, 48 h
# [2] = Cytotoxicity against human BJ cells assessed as inhibition of cell growth incubated for 72 hrs by CellTiter-Glo luminescence assay; format: toxicity, cell-based
# [3] = Metabolic stability in […] mouse liver microsomes assessed as half-life at 20 uM measured after 2 hrs by UPLC-MS analysis; format: ADME, Microsome
# [4] = Aqueous solubility of compound in 1-propanol at pH 7.4 incubated for 18 hrs by UV spectrum analysis; format: physicochemical; conditions: 1-propanol (aqueous, pH 7.4), pH 7.4
# [5] = Metabolic stability in […] mouse liver microsomes assessed as intrinsic clearance at 20 uM measured after 2 hrs by UPLC-MS analysis; format: ADME, Microsome; conditions: read-out: CLH
# [6] = Metabolic stability in rat liver microsomes assessed as half-life at 20 uM; format: ADME, Microsome
# [7] = Metabolic stability in rat liver microsomes assessed as intrinsic clearance at 20 uM; format: ADME, Microsome; conditions: read-out: CLH
# [8] = Metabolic stability in human liver microsomes assessed as half-life at 20 uM incubated for 2 hrs by UPLC-MS analysis; format: ADME, Microsome
# [9] = Metabolic stability in human liver microsomes assessed as intrinsic clearance at 20 uM incubated for 2 hrs by UPLC-MS analysis; format: ADME, Microsome; conditions: read-out: CLH
# [10] = tested on: Trypanosoma congolense; experiment: Antitrypanosomal activity against Trypanosoma congolense IL3000 assessed as inhibition of parasite proliferation incubated for 69 hrs by resazurin dye based microplate fluorometric analysis; format: functional, organism-based; conditions: IL3000, 69 h
# [11] = tested on: Trypanosoma vivax; experiment: Antitrypanosomal activity against Trypanosoma vivax STIB 719/ ILRAD 560 assessed as inhibition of parasite proliferation incubated for 45 hrs by resazurin dye based microplate fluorometric analysis; format: functional, organism-based; conditions: STIB 719/ ILRAD 560, 45 h
# [12] = tested on: Raji; experiment: Cytotoxicity against human Raji cells assessed as inhibition of cell growth incubated for 72 hrs by CellTiter-Glo luminescence assay; format: functional, cell-based
# [13] = tested on: HepG2; experiment: Cytotoxicity against human HepG2 cells assessed as inhibition of cell growth incubated for 72 hrs by CellTiter-Glo luminescence assay; format: functional, cell-based; conditions: HepG2, 72 h
# [14] = Cytotoxicity against HEK293 cells assessed as inhibition of cell growth incubated for 72 hrs by CellTiter-Glo luminescence assay; format: toxicity, cell-based; conditions: human
# [15] = Stability in mouse plasma assessed as half-life measured after 24 hrs by UPLC-MS analysis; format: ADME, cell-free
# [16] = Stability in rat plasma assessed as half-life measured after 24 hrs by UPLC-MS analysis; format: ADME, cell-free
# [17] = Stability in human plasma assessed as half-life measured after 24 hrs by UPLC-MS analysis; format: ADME, cell-free
# [18] = Protein binding in mouse plasma at 20 uM incubated for 18 hrs by UPLC-MS analysis; format: ADME, cell-free; conditions: read-out: PPB (converted)
# [19] = Protein binding in rat plasma at 20 uM incubated for 18 hrs by UPLC-MS analysis; format: ADME, cell-free; conditions: read-out: PPB (converted)
# [20] = Protein binding in human plasma at 20 uM incubated for 18 hrs by UPLC-MS analysis; format: ADME, cell-free; conditions: read-out: PPB (converted)
# [21] = Permeability of compound at pH 7.4 incubated for 30 mins by PAMPA-GIT assay; format: ADME; conditions: read-out: permeability
# [22] = Efflux ratio of apparent permeability from basolateral to apical side over apical to basolateral side in human Caco-2 cells incubated for 2 hrs by UPLC/MS analysis; format: ADME, cell-based
# [23] = Stability of compound in PBS at pH 7.4 assessed as half-life measured after 48 hrs by UPLC-MS analysis; format: physicochemical
# [24] = Stability of compound in PBS at pH 5 assessed as half-life measured after 48 hrs by UPLC-MS analysis; format: physicochemical
# [25] = Stability of compound in PBS at pH 3 assessed as half-life measured after 48 hrs by UPLC-MS analysis; format: physicochemical
# [26] = Stability of compound in SGF assessed as half-life measured after 24 hrs by UPLC-MS analysis; format: ADME
# [27] = Cmax in C57BL/6 mouse at 50 mg/kg, po measured after 144 hrs by LC-MS/MS analysis; format: ADME, organism-based; conditions: in vivo
# [28] = Tmax in C57BL/6 mouse at 50 mg/kg, po measured after 144 hrs by LC-MS/MS analysis; format: ADME, organism-based; conditions: in vivo
# [29] = AUC in C57BL/6 mouse at 50 mg/kg, po measured after 144 hrs by LC-MS/MS analysis; format: ADME, organism-based; conditions: in vivo
# [30] = Elimination half-life in C57BL/6 mouse at 50 mg/kg, po measured after 144 hrs by LC-MS/MS analysis; format: ADME, organism-based; conditions: in vivo, read-out: beta t1/2 (converted)
# [31] = Drug concentration in C57BL/6 mouse brain at 50 mg/kg, po measured after 144 hrs by LC-MS/MS analysis; format: ADME, organism-based; conditions: read-out: Ct
# [32] = Clearance in C57BL/6 mouse at 50 mg/kg, po measured after 144 hrs by LC-MS/MS analysis; format: ADME, organism-based; conditions: in vivo
# [33] = Cmax in Sprague-Dawley rat at 6 mg/kg, iv measured after 45.3 hrs by LC/MS analysis; format: ADME, organism-based; conditions: in vivo
# [34] = Oral bioavailability in Sprague-Dawley rat at 50 mg/kg measured after 45.3 hrs by LC/MS analysis; format: ADME, organism-based; conditions: in vivo
# [35] = Toxicity in Sprague-Dawley rat at 50 mg/kg, po measured after 45.3 hrs; format: organism-based; conditions: in vivo
# [36] = tested on: Trypanosoma brucei rhodesiense; experiment: Antitrypanosomal activity against Trypanosoma brucei rhodesiense STIB900 infected in NMRI mouse model assessed as survival at 50 mg/kg, po pre-infected for 3 days followed by compound administration for 4 days and measured 60 days post infection (reference value: 7 day); format: functional; conditions: time 57 day
# [37] = tested on: Trypanosoma congolense; experiment: Antitrypanosomal activity against Trypanosoma congolense STIB 736/IL-1180 infected in NMRI mouse model assessed as survival at 50 mg/kg, ip administrated […] starting from day 7 to day 10 post infection (reference value: 11 day); format: functional
# [38] = tested on: Trypanosoma brucei brucei; experiment: Antitrypanosomal activity against Trypanosoma brucei brucei 427 assessed as reduction in parasitemia in presence of fetal bovine serum; format: functional, organism-based
# [39] = tested on: Trypanosoma brucei brucei; experiment: Trypanocidal activity against Trypanosoma brucei brucei 427 assessed as reduction in parasitemia at 8 uM incubated for 4 days by clonal dilution based CellTiter-Glo assay; format: functional, organism-based; conditions: time 4.0 day
# [40] = tested on: Trypanosoma brucei brucei; experiment: Trypanocidal activity against Trypanosoma brucei brucei 427 assessed as reduction in parasitemia at 0.1 to 1.5 uM incubated for 4 days in presence of nifurtimox by CellTiter-Glo assay; format: functional, organism-based; conditions: dose 0.1-1.5 µM, time 4.0 day
smiles,measurement,setting,value
Cc1ccc(-c2nc3ccccc3s2)cc1NC(=O)c1cc([N+](=O)[O-])c(N2CCN(C)CC2)cc1Cl,EC50,[1],1 nM
same,EC50 at 72 h,[2],> 25000 nM
same,half-life at 20 µM,[3],> 4 h
same,solubility at 18 h,[4],≤ 0.3 µM
same,CLint scaled at 20 µM,[5],< 14 mL/min/kg
same,half-life at 20 µM,[6],> 4 h
same,CLint scaled at 20 µM,[7],< 12 mL/min/kg
same,half-life at 20 µM,[8],> 4 h
same,CLint scaled at 20 µM,[9],< 6 mL/min/kg
same,EC50,[10],3 nM
same,EC50,[11],6 nM
same,EC50,[12],> 25000 nM
same,EC50,[13],> 25000 nM
same,EC50 at 72 h,[14],> 25000 nM
same,half-life,[15],> 24 h
same,half-life,[16],> 24 h
same,half-life,[17],> 24 h
same,"fraction unbound at 18 h, 20 µM",[18],0.009
same,"fraction unbound at 18 h, 20 µM",[19],0.007
same,"fraction unbound at 18 h, 20 µM",[20],0.002
same,Papp at 0.5 h,[21],237 ×10⁻⁶ cm/s
same,efflux ratio at 2 h,[22],1.92
same,half-life,[23],5.7 h
same,half-life,[24],> 24 h
same,half-life,[25],> 24 h
same,half-life,[26],> 24 h
same,Cmax,[27],6.5 µM
same,Tmax,[28],4 h
same,AUC at 144 h,[29],83 µM·h
same,half-life,[30],7 h
same,concentration at 144 h,[31],8 µM
same,CL/F,[32],0.357 mL/min
same,Cmax,[33],> 10 µM
same,bioavailability,[34],14%
same,Activity,[35],Non-Toxic
same,Survival,[36],14 days
same,Survival,[37],21 days
same,Activity,[38],Active
same,Activity,[39],inactive
same,Activity,[40],Active
